Results published in patent US6465663B2, “O- or S-substituted tetrahydronaphthalene derivatives having retinoid and/or retinoid antagonist-like biological activity” (Allergan, Inc., priority 1996, dated 2002).

What was measured:
RARα = molecular target: T1, RARα (Homo sapiens, UniProt P10276); assay: Ligand binding assay
T1 sequence (P10276 1-462): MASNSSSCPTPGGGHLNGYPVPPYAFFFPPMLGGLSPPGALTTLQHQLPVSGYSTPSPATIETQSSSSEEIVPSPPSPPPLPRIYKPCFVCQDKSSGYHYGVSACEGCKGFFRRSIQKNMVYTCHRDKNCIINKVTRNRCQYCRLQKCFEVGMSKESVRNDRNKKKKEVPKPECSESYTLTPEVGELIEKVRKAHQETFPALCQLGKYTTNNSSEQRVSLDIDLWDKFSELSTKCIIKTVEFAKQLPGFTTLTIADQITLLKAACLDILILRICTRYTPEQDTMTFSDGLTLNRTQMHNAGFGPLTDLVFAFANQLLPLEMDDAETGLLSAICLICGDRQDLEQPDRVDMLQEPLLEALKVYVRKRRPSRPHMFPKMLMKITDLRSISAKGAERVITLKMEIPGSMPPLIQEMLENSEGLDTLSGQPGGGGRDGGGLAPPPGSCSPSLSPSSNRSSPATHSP
Excerpt: (§1) Other assays described below, measure the ability of the compounds of the present invention to bind to, and/or activate various retinoid receptor subtypes. When in these assays a compound binds to a given receptor subtype and activates the transcription of a reporter gene through that subtype, then the compound is considered an agonist of that receptor subtype. […] In the below described assays the ability of the compounds to bind to RARα, RARβ, RARγ, RXRα, RXRβ and RXRΓ receptors, and the ability or inability of the compounds to activate transcription of a reporter gene through these receptor subtypes can be tested.
(§2) A holoreceptor transactivation assay and a ligand binding assay which measure the antagonist/agonist like activity of the compounds of the invention, or their ability to bind to the several retinoid receptor subtypes, respectively, are described in published PCT Application No. WO WO93/11755 (particularly on pages 30-33 and 37-41) published on Jun. 24, 1993, the specification of which is also incorporated herein by reference. A description of the holoreceptor transactivation assay is also provided below.
(§3) CV1 cells (5,000 cells/well) were transfected with an RAR reporter plasmid MTV-TREp-LUC (50 ng) along with one of the RAR expression vectors (10 ng) in an automated 96-well format by the calcium phosphate procedure of Heyman et al. Cell 68, 397-406, (1992). For RXRα and RXRγ transactivation assays, an RXR-responsive reporter plasmid CRBPII-tk-LUC (50 ng) along with the appropriate RXR expression vectors (10 ng) was used substantially as described by Heyman et al. above, and Allegretto et al. J. Biol. Chem. 268, 26625-26633. For RXRβ transactivation assays, an RXR-responsive reporter plasmid CPRE-tk-LUC ([…]) along with RXRβ expression vector ([…]) was used as described in above. These reporters contain DRI elements from human CRBPII and certain DRI elements from promoter, respectively. (see Mangelsdorf et al. The Retinoids: Biology, Chemistry and Medicine, pp 319-349, Raven Press Ltd., New York and Heyman et al., cited above) (1, 8). A β-galactosidase (50 ng) expression vector was used as an internal control in the transfections to normalize for variations in transfection efficiency. The cells were transfected in triplicate for 6 hours, followed by incubation with retinoids for 36 hours, and the extracts were assayed for luciferase and β-galactosidase activities. The detailed experimental procedure for holoreceptor transactivations has been described in Heyman et al. above, and Allegretto et al. cited above. The results obtained in this assay are expressed in EC50 numbers, as they are also in the chimeric receptor transactivation assay. The Heyman et al. Cell 68, 397-406, Allegretto et al. J. Biol. Chem. 268, 26625-26633, and Mangelsdorf et al. The Retinoids: Biology, Chemistry and Medicine, pp 319-349, Raven Press Ltd., New York, are expressly incorporated herein by reference. The results of ligand binding assay are expressed in Kd numbers. (See Cheng et al. Biochemical Pharmacology Vol. 22 pp 3099-3108, expressly incorporated herein by reference.)

RARβ = molecular target: T2, RARβ (Homo sapiens, UniProt P10826); assay: Ligand binding assay
T2 sequence (P10826 1-455): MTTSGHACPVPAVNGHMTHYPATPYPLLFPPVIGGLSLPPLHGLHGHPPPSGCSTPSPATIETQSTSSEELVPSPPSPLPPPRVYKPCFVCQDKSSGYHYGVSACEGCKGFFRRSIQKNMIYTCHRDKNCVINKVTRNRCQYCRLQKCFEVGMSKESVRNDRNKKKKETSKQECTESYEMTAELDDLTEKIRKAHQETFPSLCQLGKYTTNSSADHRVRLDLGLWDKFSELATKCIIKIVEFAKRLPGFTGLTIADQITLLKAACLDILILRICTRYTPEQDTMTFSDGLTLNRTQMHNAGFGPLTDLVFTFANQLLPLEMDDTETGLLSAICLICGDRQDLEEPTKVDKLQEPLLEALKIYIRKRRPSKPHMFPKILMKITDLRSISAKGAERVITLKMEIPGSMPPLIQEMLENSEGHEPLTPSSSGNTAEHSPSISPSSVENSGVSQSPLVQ
Excerpt: as §1, §2, §3

RARγ = molecular target: T3, RARγ (Homo sapiens, UniProt P13631); assay: Ligand binding assay
T3 sequence (P13631 1-454): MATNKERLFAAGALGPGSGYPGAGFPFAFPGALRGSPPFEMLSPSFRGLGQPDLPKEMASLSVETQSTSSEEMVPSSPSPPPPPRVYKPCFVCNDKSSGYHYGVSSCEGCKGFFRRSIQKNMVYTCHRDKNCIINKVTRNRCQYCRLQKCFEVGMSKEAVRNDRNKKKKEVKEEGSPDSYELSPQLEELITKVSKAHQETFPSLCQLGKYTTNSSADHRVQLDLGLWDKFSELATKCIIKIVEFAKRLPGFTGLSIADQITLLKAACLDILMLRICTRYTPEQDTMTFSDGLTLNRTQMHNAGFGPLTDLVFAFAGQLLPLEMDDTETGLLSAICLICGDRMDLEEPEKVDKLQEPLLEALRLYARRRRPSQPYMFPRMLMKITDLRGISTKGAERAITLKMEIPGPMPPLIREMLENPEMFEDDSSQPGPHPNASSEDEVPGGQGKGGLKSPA
Excerpt: as §1, §2, §3

[1] = tested on: ornithine decarboxylase (ODC); assay: ODC assay: inhibition of TPA induction of ornithine decarboxylase activity; format: in vivo; settings: for IC60: concentration of the test compound which causes 60% inhibition in the ODC assay
Excerpt: A classic measure of retinoic acid activity involves measuring the effects of retinoic acid on ornithine decarboxylase. […] That reference discloses that ornithine decarboxylase (ODC) activity increased precedent to polyamine biosynthesis. It has been established elsewhere that increases in polyamine synthesis can be correlated or associated with cellular proliferation. Thus, if ODC activity could be inhibited, cell hyperproliferation could be modulated. Although all cases for ODC activity increases are unknown, it is known that 12-0-tetradecanoylphorbol-13-acetate (TPA) induces ODC activity. Retinoic acid inhibits this induction of ODC activity by TPA.

Row | Structure (SMILES) | IC60 [1] | also measured
1 | CCO/N=C1\CCC(C)(C)c2ccc(/C=C/c3ccc(C(=O)O)cc3)cc21 [Compound A6, (E)-4-[2-(5,5-Dimethyl-5,6,-dihydro-8(7H)-anti-(O-ethyl oxime)-naphthalen-2-yl)ethenyl]-benzoic acid] |  | Kd (RARα): 125 nM; Kd (RARβ): 36 nM; Kd (RARγ): 127 nM
2 | CCOC(=O)c1ccc(/N=N/c2ccc3c(c2)/C(=N/OC)CCC3(C)C)cc1 [Compound D3, Ethyl 4-[(8(7H)-anti-(O-methyl oxime)-5,5-dimethyl-5,6-dihydronaphthalen-2-yl)azo]benzoate] | 8.4 nmols | 
3 | CCOC(=O)/C=C(C)/C=C/C=C(\C)c1ccc2c(c1)C(c1cccs1)=CCC2(C)C [Compound C15, Ethyl 7-[4,4-dimethyl-3,4,-dihydronaphthalen-1-(2-thienyl)-7-yl]-3,7-dimethyl-hept-2(E), 4(E), 6(E)trienoate] | 14.5 nmols | 
4 | CCON=C1CCC(C)(C)c2ccc(/C=C/c3ccc(C(=O)OCC)cc3)cc21 [Compound A5, Ethyl (E)-4-[2-(5,5-dimethyl-5,6,-dihydro-8(7H)-anti-(O-ethyl oxime)-naphthalen-2-yl)ethenyl]-benzoate] | 10.3 nmols | 
5 | CCOC(=O)c1ccc(N=Nc2ccc3c(c2)C(OCOC)CCC3(C)C)cc1 (racemic) [Compound D6, (+/−) Ethyl 4-[(5,5-dimethyl-8-(methoxymethyloxy)-5,6,7,8-tetrahydronaphthalen-2-yl)azo]benzoate] | 1.9 nmols | 
6 | CCOC(=O)c1ccc(/C=C/c2ccc3c(c2)C(=C(CC)CC)CCC3(C)C)cc1 [Compound A27, Ethyl (E)-4-[2-(7,8-dihydro-5,5-dimethyl-8(7H)-(pentyliden-3-yl)-naphthalen-2-yl)ethenyl]-benzoate] | 0.7 nmols | 
7 | CCOC(=O)c1ccc(OC(=O)c2ccc3c(c2)C(S(=O)(=O)c2ccccc2)=CCC3(C)C)cc1 [Compound E24, Ethyl 4-[{(5,5-dimethyl-8-(phenylsulfonyl)-5,6dihydronaphthalen-2-yl)carbonyl}oxy]benzoate] | 8.3 nmols | 
8 | CO/N=C1\CCC(C)(C)c2ccc(N=Nc3ccc(C(=O)O)cc3)cc21 [Compound D4, 4-[(8(7H)-Anti-(O-methyl oxime)-5,5-dimethyl-5,6-dihydronaphthalen-2-yl)azo]benzoic Acid] |  | Kd (RARβ): 132 nM; Kd (RARγ): 363 nM
9 | CCOC(=O)/C=C(C)/C=C/C=C(\C)c1ccc2c(c1)C(OS(=O)(=O)C(F)(F)F)=CCC2(C)C [Compound C14, Ethyl 7-[4,4-dimethyl-3,4,-dihydronaphthalen-1-trifluoromethylsulfonyloxy-7-yl]-3,7-dimethyl-hept-2(E), 4(E), 6(E)trienoate] | 4 nmols | 
10 | CCOC(=O)c1ccc(NC(=O)c2ccc3c(c2)C(OC2CCCCO2)CCC3(C)C)cc1 (single isomer, unassigned) [Compound E72b, Ethyl 4-[5,6,7,8-tetrahydro-8(R or S)-(2′(S or R)tetrahydropyranoxy)5,5-dimethylnaphthalene-2-yl)carboxamido]benzoate] | 18 nmols | 
11 | CCOC(=O)c1ccc(/C=C/c2ccc3c(c2)C(C2SCCCS2)CCC3(C)C)cc1 (stereo not drawn) [Compound A23, Ethyl (E)-4-[-2-(5,6,7,8-tetrahydro-5,5-dimethyl-8-(1,3-dithian-2-yl)naphthalen-2-yl)ethenyl] benzoate] | 43.7 nmols | 
12 | CCOC(=O)c1ccc(/C=C/c2ccc3c(c2)C(=O)CCC3(C)C)cc1 [Compound A2, Ethyl (E)-4-[2-(5,6-dihydro-5,5-dimethyl-naphthalen-8(7H)-one-2-yl)ethenyl]-benzoate] | 27 nmols | 
13 | CCOC(=O)c1ccc(/C=C/c2ccc3c(c2)C(Sc2ccccc2)=CCC3(C)C)cc1 [Compound A16, Ethyl (E)-4-[2-(5,6-dihydro-5,5-dimethyl-8-(phenylthio)-naphthalenyl)ethenyl] benzoate] |  | IC80 ([1]; concentration of the test compound which causes 80% inhibition in the ODC assay, cell marked (IC80)): 4.3 (IC80) nmols

Further lines, with some results ahead:

Row | IC60 [1] | Structure (SMILES) | also measured
14 | 10 nmols | CCON=C1CCC(C)(C)c2ccc(/C(C)=C/C=C/C(C)=C/C(=O)OCC)cc21 [Compound C22b, Ethyl 7-[4,4-dimethyl-3,4-dihydro-1(2H)-anti-(O-ethyl oxime)-naphth-7-yl]3,7-dimethyl-hepta-2(E),4(E),6(E)-trienoate] | 
15 | 3.1 nmols | CCOC(=O)c1ccc(OC(=O)c2ccc3c(c2)C(OC2CCCCO2)CCC3(C)C)cc1 (single isomer, unassigned) [Compound E56a, Ethyl 4-[5,6,7,8-tetrahydro-8(R or S)-(2′(R or S)-tetrahydropyranoxy)-5,5-dimethyl-2-napthoyloxy]benzoate] | 
16 | 88.4 nmols | CCOC(=O)c1ccc(NC(=O)c2ccc3c(c2)C(=C(C)C)CCC3(C)C)cc1 [Compound E16] | 
17 | 5.3 nmols | CCOC(=O)c1ccc(NC(=O)c2ccc3c(c2)C(C(C)(C)C)=CCC3(C)C)cc1 [Compound E79, Ethyl 4-[(5 .5-dimethyl-5,6-dihydro-8-(1,1-dimethylethyl)-2-naphthalenyl)carboxamido]-benzoate] | 
18 | 24.7 nmols | CCOC(=O)c1ccc(OC(=O)c2ccc3c(c2)C(=C(C)C)CCC3(C)C)cc1 [Compound E15, Ethyl 4-[{(5,5-dimethyl-8(7H-(propyliden-2-yl)-5.6-dihydronaphthalen-2-yl)}carbonyl}oxy]benzoate] | 
